Source: patent US8921376B2, “Pyrrolopyridines useful as inhibitors of protein kinase” (Vertex Pharmaceuticals Incorporated, priority 2005, dated 2014)

Legend:
Type in all cases: biochemical
Details in all cases: Table 6; enzyme inhibition data (Ki)
[1] = molecular target: T1, JAK3 (Homo sapiens, UniProt P52333); assay: JAK3 inhibition assay (33P incorporation into poly(Glu)4Tyr)
T1 sequence (P52333 1-1124): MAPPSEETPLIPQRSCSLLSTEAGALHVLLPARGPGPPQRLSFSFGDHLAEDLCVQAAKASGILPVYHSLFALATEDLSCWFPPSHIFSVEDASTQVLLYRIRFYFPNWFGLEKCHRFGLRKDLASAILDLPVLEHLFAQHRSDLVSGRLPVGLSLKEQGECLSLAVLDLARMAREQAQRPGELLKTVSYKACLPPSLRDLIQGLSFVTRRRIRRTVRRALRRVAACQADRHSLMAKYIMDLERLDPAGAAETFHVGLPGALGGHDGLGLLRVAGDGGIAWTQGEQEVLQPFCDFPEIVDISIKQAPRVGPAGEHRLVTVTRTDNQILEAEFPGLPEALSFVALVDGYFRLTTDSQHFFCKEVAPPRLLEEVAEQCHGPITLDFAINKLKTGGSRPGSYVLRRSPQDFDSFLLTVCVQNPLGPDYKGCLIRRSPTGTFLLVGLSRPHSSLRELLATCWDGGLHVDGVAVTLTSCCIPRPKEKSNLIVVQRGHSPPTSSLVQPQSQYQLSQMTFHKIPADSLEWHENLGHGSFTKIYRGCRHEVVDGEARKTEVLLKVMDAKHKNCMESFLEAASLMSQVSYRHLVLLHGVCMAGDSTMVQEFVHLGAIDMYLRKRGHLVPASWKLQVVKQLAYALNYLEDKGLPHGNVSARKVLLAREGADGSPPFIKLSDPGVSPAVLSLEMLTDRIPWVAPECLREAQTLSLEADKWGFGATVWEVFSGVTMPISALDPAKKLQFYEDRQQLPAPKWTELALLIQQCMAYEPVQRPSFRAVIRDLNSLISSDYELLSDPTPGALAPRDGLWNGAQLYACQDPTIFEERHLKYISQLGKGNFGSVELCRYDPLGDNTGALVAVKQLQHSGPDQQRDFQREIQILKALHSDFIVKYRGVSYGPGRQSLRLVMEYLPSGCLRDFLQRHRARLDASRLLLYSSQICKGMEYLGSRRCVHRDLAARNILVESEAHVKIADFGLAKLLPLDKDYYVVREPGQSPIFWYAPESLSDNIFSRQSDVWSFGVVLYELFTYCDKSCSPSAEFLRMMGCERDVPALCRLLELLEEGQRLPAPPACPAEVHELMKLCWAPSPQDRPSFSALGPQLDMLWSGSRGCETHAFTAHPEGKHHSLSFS
Outline: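 After TCA quench and filter harvest, scintillation counting of 33P measured phosphorylation of poly(Glu)4Tyr (1 μM) by 1 nM JAK3. The 20-min, 25° C. reaction contained 5 μM ATP (200 μCi/μmole) in pH 7.4 HEPES buffer with 10 mM MgCl2.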

[2] = molecular target: JAK2 (Homo sapiens, UniProt O60674); assay: JAK2 inhibition assay (as Example 3 with JAK-2 enzyme)
JAK2, sequence (O60674 whole entry): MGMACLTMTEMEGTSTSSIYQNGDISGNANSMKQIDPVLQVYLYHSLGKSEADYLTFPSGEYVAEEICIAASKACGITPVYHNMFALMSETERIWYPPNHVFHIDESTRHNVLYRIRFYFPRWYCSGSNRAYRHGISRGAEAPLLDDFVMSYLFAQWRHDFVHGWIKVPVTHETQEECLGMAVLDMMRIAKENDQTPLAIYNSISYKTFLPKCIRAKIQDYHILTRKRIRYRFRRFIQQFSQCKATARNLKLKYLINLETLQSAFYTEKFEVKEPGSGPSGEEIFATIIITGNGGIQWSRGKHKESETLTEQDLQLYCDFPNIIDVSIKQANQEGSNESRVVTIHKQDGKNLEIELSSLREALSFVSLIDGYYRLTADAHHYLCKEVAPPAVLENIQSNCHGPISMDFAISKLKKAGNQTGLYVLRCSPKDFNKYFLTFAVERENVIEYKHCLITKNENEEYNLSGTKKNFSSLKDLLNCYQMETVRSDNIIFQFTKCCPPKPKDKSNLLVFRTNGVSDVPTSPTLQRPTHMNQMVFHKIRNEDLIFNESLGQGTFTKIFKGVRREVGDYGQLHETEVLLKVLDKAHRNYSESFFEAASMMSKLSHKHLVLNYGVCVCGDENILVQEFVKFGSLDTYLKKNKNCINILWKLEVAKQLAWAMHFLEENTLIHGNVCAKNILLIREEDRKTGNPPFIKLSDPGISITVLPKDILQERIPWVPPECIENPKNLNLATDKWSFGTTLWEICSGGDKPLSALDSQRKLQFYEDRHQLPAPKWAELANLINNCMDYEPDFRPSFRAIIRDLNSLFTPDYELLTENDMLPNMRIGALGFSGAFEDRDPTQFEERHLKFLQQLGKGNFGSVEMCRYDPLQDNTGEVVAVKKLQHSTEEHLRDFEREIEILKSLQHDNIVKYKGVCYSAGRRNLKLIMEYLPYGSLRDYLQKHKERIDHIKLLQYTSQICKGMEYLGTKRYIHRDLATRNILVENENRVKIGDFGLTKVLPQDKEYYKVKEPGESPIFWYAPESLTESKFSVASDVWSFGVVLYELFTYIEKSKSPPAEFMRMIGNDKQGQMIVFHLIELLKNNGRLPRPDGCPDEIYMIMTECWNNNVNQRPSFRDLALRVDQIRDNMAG
Outline: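 In HEPES pH 7.4 buffer with 10 mM MgCl2, 1 mM DTT, 25 mM NaCl and 0.01% BSA, JAK2 enzyme phosphorylated poly(Glu)4Tyr (final 15 μM) using 33P-ATP (final 12 μM) for 20 min at room temperature (25 °C). Reactions stopped with TCA; incorporated 33P measured by scintillation after filtration.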

[3] = molecular target: ROCK I (Homo sapiens, UniProt Q13464); assay: ROCK-I inhibition assay (radioactive enzyme assay, MBP substrate)
ROCK I, sequence (Q13464 whole entry): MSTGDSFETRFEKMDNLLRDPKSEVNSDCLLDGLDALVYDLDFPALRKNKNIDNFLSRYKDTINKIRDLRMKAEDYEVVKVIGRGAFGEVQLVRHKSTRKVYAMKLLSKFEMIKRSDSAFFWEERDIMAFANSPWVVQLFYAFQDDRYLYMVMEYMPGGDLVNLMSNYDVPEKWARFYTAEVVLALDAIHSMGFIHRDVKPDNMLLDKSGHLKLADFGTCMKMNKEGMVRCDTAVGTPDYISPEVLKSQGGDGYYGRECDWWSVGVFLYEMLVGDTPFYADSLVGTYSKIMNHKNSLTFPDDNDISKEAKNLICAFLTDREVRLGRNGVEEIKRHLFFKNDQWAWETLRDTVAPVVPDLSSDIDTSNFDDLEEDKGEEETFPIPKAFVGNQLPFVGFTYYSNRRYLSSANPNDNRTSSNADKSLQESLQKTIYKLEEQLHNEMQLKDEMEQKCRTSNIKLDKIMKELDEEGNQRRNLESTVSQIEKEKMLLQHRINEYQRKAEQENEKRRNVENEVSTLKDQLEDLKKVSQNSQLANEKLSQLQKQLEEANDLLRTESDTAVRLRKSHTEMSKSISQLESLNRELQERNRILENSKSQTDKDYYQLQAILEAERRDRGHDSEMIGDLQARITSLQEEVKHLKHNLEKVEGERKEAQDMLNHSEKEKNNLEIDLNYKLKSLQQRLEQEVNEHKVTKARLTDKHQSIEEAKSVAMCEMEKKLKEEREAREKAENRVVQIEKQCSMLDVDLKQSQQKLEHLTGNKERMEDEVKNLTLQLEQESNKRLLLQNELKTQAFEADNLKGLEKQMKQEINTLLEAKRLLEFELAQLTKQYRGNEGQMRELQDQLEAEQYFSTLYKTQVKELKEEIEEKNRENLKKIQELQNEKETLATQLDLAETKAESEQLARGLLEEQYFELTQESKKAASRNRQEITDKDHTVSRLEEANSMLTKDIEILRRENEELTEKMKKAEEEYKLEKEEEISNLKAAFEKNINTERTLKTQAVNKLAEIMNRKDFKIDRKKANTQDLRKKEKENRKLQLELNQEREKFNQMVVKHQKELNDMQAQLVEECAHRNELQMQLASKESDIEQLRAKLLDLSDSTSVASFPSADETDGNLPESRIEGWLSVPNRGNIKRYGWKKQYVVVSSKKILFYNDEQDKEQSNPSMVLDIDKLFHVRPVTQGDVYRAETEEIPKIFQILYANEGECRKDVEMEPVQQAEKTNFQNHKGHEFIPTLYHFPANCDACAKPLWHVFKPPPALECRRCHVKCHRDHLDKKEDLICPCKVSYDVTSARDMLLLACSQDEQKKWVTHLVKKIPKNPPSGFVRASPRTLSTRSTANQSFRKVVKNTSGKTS
Outline: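 Human ROCK at 5 nM phosphorylated 27 μM myelin basic protein with 13 μM [γ-33P]ATP (final) in HEPES pH 7.5, MgCl2, NaCl, DTT and 1.5% DMSO. Reactions ran 2 h at room temperature before TCA quench and filter-plate scintillation counting. After background subtraction, data were fit to give Ki(app).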

Ki [1] [nM]	Ki [2] [nM]	Ki [3] [nM]	Compound
> 5000	> 5000	> 4000	O=C(NCCC(F)(F)F)c1ccccc1-c1ccnc2[nH]ccc12 [compound 254]
> 5000	> 5000	> 4000	CCCNC(=O)c1ccccc1-c1ccnc2[nH]ccc12 [compound 258]
< 500	< 500	< 500	O=C(NCC(F)(F)F)c1ccc(-c2ccnc3[nH]ccc23)s1 [compound 260]
< 500	< 500	< 500	CCN(C)C(=O)c1cc(-c2ccnc3[nH]ccc23)c[nH]1 [compound 261]
< 500	< 500	< 500	O=C(NC1CCCC1)c1cc(-c2ccnc3[nH]ccc23)c[nH]1 [compound 263]
< 500	< 500	< 500	CC(C)(C(=O)NCC(F)(F)F)c1cccc(-c2ccnc3[nH]ccc23)n1 [compound 265]
< 500	< 500	< 500	O=C(NCC(F)(F)F)c1ccc(-c2ccnc3[nH]ccc23)cc1 [compound 269]
500 to 5000	< 500	500 to 5000	O=C(NC1CC1)c1ccc(-c2ccnc3[nH]ccc23)cc1 [compound 270]
< 500	< 500	< 500	O=C(Nc1ccccc1)c1ccc(-c2ccnc3[nH]ccc23)cc1 [compound 271]
< 500	< 500	< 500	CNC(=O)c1ccc(-c2ccnc3[nH]ccc23)cc1 [compound 272]
< 500	500 to 5000	> 4000	O=C(O)c1cc(-c2ccnc3[nH]ccc23)c[nH]1 [compound 274]
< 500	< 500	500 to 5000	O=C(NCC(F)(F)F)c1cc(-c2c(Cl)cnc3[nH]ccc23)c[nH]1 [compound 276]
< 500	< 500	500 to 5000	CNC(=O)c1cc(-c2c(Cl)cnc3[nH]ccc23)c[nH]1 [compound 277]
< 500	< 500	> 4000	CCNC(=O)c1cc(-c2c(Cl)cnc3[nH]ccc23)c[nH]1 [compound 278]

More lines, now with the values behind:

Compound	Ki [1] [nM]	Ki [2] [nM]	Ki [3] [nM]
O=C(NCC(F)(F)F)c1ccccc1-c1ccnc2[nH]ccc12 [compound 253]	> 5000	> 5000	> 4000
CCNC(=O)c1cccc(-c2ccnc3[nH]ccc23)c1 [compound 255]	500 to 5000	500 to 5000	500 to 5000
CCCNC(=O)c1cccc(-c2ccnc3[nH]ccc23)c1 [compound 256]	500 to 5000	> 5000	500 to 5000
CCNC(=O)c1ccccc1-c1ccnc2[nH]ccc12 [compound 257]	> 5000	> 5000	> 4000
O=C(NCC(F)(F)F)c1cc(-c2ccnc3[nH]ccc23)c[nH]1 [compound 259]	< 500	< 500	< 500
CCN(CC)C(=O)c1cc(-c2ccnc3[nH]ccc23)c[nH]1 [compound 262]	< 500	< 500	< 500
CC(C)NC(=O)c1cc(-c2ccnc3[nH]ccc23)c[nH]1 [compound 264]	< 500	< 500	< 500
O=C(Cc1nc(-c2ccnc3[nH]ccc23)ncc1F)NCC(F)(F)F [compound 266]	500 to 5000	< 500	500 to 5000
CCCNC(=O)c1ccc(-c2ccnc3[nH]ccc23)cc1 [compound 267]	< 500	< 500	< 500
O=C(NCCC(F)(F)F)c1ccc(-c2ccnc3[nH]ccc23)cc1 [compound 268]	< 500	< 500	< 500
CCNC(=O)c1ccc(-c2ccnc3[nH]ccc23)cc1 [compound 273]	500 to 5000	< 500	500 to 5000
O=C(Nc1ccccc1)c1cc(-c2ccnc3[nH]ccc23)c[nH]1 [compound 275]	< 500	< 500	< 500
